Data published in patent US8524866B2, “Antibodies to the alpha-7 nicotinic receptors and methods of treating inflammatory disorders with the same” (The Feinstein Institute for Medical Research, priority 2005, dated 2013).

Molecular target: α-bungarotoxin-binding nicotinic receptors on primary human macrophages (Homo sapiens, UniProt P36544)
Sequence (P36544 23-502): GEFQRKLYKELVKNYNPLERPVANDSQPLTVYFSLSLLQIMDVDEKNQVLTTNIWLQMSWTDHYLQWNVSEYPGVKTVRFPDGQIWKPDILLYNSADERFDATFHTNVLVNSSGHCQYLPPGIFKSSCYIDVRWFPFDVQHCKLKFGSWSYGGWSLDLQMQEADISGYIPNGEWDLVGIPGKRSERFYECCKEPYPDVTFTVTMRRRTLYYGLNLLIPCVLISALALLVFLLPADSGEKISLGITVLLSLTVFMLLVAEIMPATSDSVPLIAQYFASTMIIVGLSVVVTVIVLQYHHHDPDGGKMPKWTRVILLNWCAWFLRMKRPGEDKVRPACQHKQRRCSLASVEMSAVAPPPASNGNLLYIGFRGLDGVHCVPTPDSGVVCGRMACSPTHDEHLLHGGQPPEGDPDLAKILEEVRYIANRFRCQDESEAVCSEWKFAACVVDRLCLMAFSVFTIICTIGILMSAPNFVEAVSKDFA

| Compound | binding on the macrophage surface | effect on intensity of α-bungarotoxin binding |
| --- | --- | --- |
| α-bungarotoxin | Strong binding | – |
| CN1CCCC1c1cccnc1 (centres unmarked) [Nicotine] | – | markedly reduced |
